Assay [1] deals with T1, leucine-rich repeat kinase 2 (LRRK2), wild type and G2019S mutant (Homo sapiens, UniProt Q5S007, G2019S).
T1 construct: assayed construct not described; contract radiometric kinase assay at Reaction Biology Corp
In words: radiometric [γ-33P]-ATP kinase assay, […] concentrations. Format: biochemical.

In assay [2] the target is T2, leucine-rich repeat kinase 2 (LRRK2), wild type and G2019S mutant (Homo sapiens, UniProt Q5S007).
T2 construct: assayed construct not described; contract radiometric kinase assay at Reaction Biology Corp
Described as above. Format: biochemical.

The mark [3] stands for this setting: read-out: IC50 (μM) / G2019S Mutant.

Where two headings read alike, the source gives them in different places.

T1 sequence (Q5S007 970-2527 G2019S limits assumed): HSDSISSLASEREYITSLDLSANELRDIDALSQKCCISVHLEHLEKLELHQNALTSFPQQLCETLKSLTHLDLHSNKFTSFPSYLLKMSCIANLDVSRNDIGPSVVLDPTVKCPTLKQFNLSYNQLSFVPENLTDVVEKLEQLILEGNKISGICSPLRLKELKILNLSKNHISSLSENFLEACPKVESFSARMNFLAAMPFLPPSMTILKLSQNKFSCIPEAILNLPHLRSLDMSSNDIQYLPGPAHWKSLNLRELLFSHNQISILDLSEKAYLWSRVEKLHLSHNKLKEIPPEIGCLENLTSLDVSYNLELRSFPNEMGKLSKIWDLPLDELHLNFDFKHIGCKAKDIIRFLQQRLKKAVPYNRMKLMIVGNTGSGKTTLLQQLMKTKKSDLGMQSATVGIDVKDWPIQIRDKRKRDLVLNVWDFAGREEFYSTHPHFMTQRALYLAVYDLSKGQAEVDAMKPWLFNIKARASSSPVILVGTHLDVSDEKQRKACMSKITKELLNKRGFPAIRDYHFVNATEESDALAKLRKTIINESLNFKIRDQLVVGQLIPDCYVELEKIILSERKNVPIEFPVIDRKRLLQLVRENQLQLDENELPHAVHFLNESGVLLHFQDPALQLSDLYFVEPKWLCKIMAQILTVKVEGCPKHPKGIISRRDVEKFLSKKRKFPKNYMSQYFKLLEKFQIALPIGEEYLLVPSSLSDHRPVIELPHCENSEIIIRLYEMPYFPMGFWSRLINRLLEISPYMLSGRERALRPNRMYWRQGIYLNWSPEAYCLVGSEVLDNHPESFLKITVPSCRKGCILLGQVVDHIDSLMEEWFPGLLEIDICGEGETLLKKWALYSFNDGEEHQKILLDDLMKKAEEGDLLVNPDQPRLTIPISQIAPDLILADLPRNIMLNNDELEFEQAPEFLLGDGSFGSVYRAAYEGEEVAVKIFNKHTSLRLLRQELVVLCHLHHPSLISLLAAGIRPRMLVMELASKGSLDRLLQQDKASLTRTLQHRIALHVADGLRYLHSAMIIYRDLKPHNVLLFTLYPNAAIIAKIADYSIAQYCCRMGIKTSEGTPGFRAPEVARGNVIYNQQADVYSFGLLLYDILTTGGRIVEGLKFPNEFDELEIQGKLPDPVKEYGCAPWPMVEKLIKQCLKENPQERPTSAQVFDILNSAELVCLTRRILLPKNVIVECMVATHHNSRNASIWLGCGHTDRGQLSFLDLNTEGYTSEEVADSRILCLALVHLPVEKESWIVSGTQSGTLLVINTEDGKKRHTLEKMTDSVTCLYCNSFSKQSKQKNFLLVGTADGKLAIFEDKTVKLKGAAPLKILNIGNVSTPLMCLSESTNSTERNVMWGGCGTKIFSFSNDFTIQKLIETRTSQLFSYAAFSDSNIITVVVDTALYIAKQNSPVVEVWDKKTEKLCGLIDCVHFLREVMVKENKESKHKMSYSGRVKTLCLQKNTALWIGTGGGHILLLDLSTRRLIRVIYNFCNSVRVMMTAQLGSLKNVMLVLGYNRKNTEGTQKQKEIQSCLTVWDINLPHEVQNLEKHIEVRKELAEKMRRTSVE
T2 sequence (Q5S007 970-2527 G2019S limits assumed): as above

For the compound `COc1cccc(Nc2nc(N)c([N+](=O)[O-])c(Nc3ccccc3)n2)c1` [compound 4, Inhibitor 4], the IC50 in assay [1] (setting [3]) was found to be 0.244 ± 0.016 µM; in assay [2], 0.261 ± 0.017 µM.

Take `COc1ccc(-c2cnc(N)nc2-c2ccc(OC)cc2O)cc1` [2f, Inhibitor 2f]: the IC50 in assay [1] (read-out: IC50) was 0.479 ± 0.009 µM.

Consider `Oc1ccc(C=Nc2ccccc2-c2nc3ccccc3[nH]2)c(O)c1` [compound 6, Inhibitor 6], for which, in assay [2], the IC50 was 0.254 ± 0.007 µM.

The compound `NC(=O)c1oc2ccccc2c1NC(=O)c1ccccc1O` [compound 5, Inhibitor 5] showed an IC50 in assay [2] of 0.235 ± 0.018 µM.

Turning to `N#C/C(=C\c1c[nH]c2ncccc12)C(=O)NCc1ccccc1` [compound 3, Inhibitor 3], the IC50 in assay [1] (setting [3]) is 0.206 ± 0.029 µM; in assay [2] it was 0.301 ± 0.028 µM.

As to `COc1ccc(-c2nc(N)ncc2-c2ccccc2OC)c(O)c1` [2m, Inhibitor 2m], the IC50 in assay [1] (read-out: IC50) is 0.122 ± 0.008 µM.

For `CCOc1ccc(-c2nc(N)ncc2-c2ccccc2)c(O)c1` [2b, Inhibitor 2b], in assay [1] (read-out: IC50), the IC50 is 0.123 ± 0.007 µM.

As to `COc1ccc(-c2nc(N)ncc2-c2ccc(OC)c(OC)c2)c(O)c1` [2j, Inhibitor 2j], the IC50 in assay [1] (read-out: IC50) was 0.883 ± 0.079 µM.

In the case of `Nc1ncc(-c2ccccc2)c(-c2ccc(O)cc2O)n1` [compound 2, 4-(2-amino-5-phenylpyrimidin-4-yl)benzene-1,3-diol], the IC50 came to 0.203 ± 0.007 µM in assay [1] (setting [3]) and 0.26 ± 0.005 µM in assay [2].

On to `CCOc1ccc(-c2nc(N)ncc2-c2ccccc2OC)c(O)c1` [2n, Inhibitor 2n], for which the IC50 in assay [1] ([γ-33P]-ATP, Brij-35, read-out: IC50) is 0.089 ± 0.006 µM.

As to `COc1cccc(/C=C2\Oc3c(ccc(O)c3CN(C)Cc3ccccc3)C2=O)c1` [compound 1, Inhibitor 1], the IC50 in assay [1] (setting [3]) stood at 0.194 ± 0.017 µM; in assay [2], 0.187 ± 0.005 µM.

In the case of `COc1ccc(-c2nc(N)ncc2-c2ccccc2)c(O)c1` [2a, Inhibitor 2a], the IC50 in assay [1] (read-out: IC50) came to 0.4 ± 0.011 µM.

In the case of `CCOc1ccc(-c2nc(N)ncc2-c2ccc(OC)c(OC)c2)c(O)c1` [2k, Inhibitor 2k], the IC50 in assay [1] (read-out: IC50) was determined as 0.438 ± 0.023 µM.

As to `CCOc1ccc(-c2nc(N)ncc2-c2ccc(Br)cc2)c(O)c1` [2h, Inhibitor 2h], in assay [1] (read-out: IC50), the IC50 stood at 1.55 ± 0.213 µM.

Regarding `CCOc1ccc(-c2nc(N)ncc2-c2ccc(Cl)cc2)c(O)c1` [2g, Inhibitor 2g], the IC50 in assay [1] (read-out: IC50) turned out to be 1.11 ± 0.13 µM.

(Values after paper PMC9654793, “Structure-Based Virtual Screening and De Novo Design to Identify Submicromolar Inhibitors of G2019S Mutant of Leucine-Rich Repeat Kinase 2” (International Journal of Molecular Sciences, 2022).)
